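These data come from cells grown in 96-well plates and exposed to compound for 48 hours at five concentrations. GI50 marks 50% less growth. TGI denotes the concentration required for complete inhibition of growth.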
Columns and labels:
Assay in all cases: inhibition of tumour cell growth, NCI panel, 48 h
U251 CNS = test system: U251 CNS
NCI-H226 lung = test system: NCI-H226 lung
NCI-H460 lung = test system: NCI-H460 lung
SK-OV-3 ovarian = test system: SK-OV-3 ovarian
SF-539 CNS = test system: SF-539 CNS
HOP-92 NSCLC = test system: HOP-92 NSCLC
OVCAR-8 ovarian = test system: OVCAR-8 ovarian
OVCAR-3 ovarian = test system: OVCAR-3 ovarian
LOX IMVI melanoma = test system: LOX IMVI melanoma
MCF7 breast = test system: MCF7 breast

Compound | GI50 (U251 CNS) | TGI (U251 CNS) | GI50 (NCI-H226 lung) | TGI (NCI-H226 lung) | GI50 (NCI-H460 lung) | TGI (NCI-H460 lung) | GI50 (SK-OV-3 ovarian) | TGI (SK-OV-3 ovarian) | GI50 (SF-539 CNS) | TGI (SF-539 CNS) | GI50 (HOP-92 NSCLC) | TGI (HOP-92 NSCLC) | GI50 (OVCAR-8 ovarian) | TGI (OVCAR-8 ovarian) | GI50 (OVCAR-3 ovarian) | TGI (OVCAR-3 ovarian) | GI50 (LOX IMVI melanoma) | TGI (LOX IMVI melanoma) | TGI (MCF7 breast)
C=C1C(=O)O[C@H]2[C@H]1CC/C(CNC(=O)/C=C/c1ccc(Br)cc1)=C\CC[C@@]1(C)O[C@@H]21 | 1.46 µM | 3.09 µM | 2.24 µM | 7.15 µM | 1.63 µM | 3.3 µM | 3.89 µM | 12.5 µM | 0.873 µM | 2.28 µM | 0.659 µM | 2.26 µM | 1.67 µM | 5.75 µM | 0.511 µM | 1.74 µM | 0.594 µM | 1.86 µM | 
CC1=CC2CC(C)=C(CC[C@]3(C)CC[C@H]([C@@H](C)C(=O)O)OO3)C(C)(C)C2CC1 (stereo partly drawn) |  | 1.01 µM |  | 3.45 µM |  | 0.393 µM |  | 3.68 µM |  | 2.68 µM |  | 0.369 µM |  | 1.31 µM |  | 2.99 µM |  | 0.207 µM | 
C[N+]1(C)CCCC1C(=O)[O-] (stereo not drawn) |  | > 100 µM |  | > 100 µM |  | > 100 µM |  | > 100 µM |  | > 100 µM |  | > 100 µM |  | > 100 µM |  | > 100 µM |  | > 100 µM | 
CO/C(=N\N=C\c1cc(OC)ccc1OC)c1ccncc1 |  | > 10 µM |  | > 10 µM |  | > 10 µM |  | > 10 µM |  | > 10 µM |  |  |  | > 10 µM |  |  |  | > 10 µM | > 10 µM
O=C(Nc1c(O)[nH]c(=S)[nH]c1=O)c1ccccn1 |  | > 100 µM |  | > 100 µM |  | > 100 µM |  | > 100 µM |  | > 100 µM |  | > 100 µM |  | > 100 µM |  | > 100 µM |  | > 100 µM | 
CC1CC2C3CC(F)C4=CC(=O)C=CC4(C)C3(F)C(O)CC2(C)C1(O)C(=O)COC(=O)C(C)(C)C (stereo not drawn) |  | > 100 µM |  | > 100 µM |  | > 100 µM |  |  |  | > 100 µM |  | > 100 µM |  |  |  | > 100 µM |  | > 100 µM | 
S=c1sc2c(Cl)ncnc2n1-c1ccccc1 |  | 29.5 µM |  | 26.4 µM |  | 32.6 µM |  | 34.3 µM |  | 29.9 µM |  | 34.3 µM |  | 31.6 µM |  | 28.9 µM |  | 16.6 µM | 
CCN(CC)CCNC(=O)c1ccccc1NC(=O)C(=O)Nc1ccccc1C(=O)NCCN(CC)CC |  | > 100 µM |  | > 100 µM |  | > 100 µM |  | > 100 µM |  | 62.2 µM |  | 98.5 µM |  | > 100 µM |  | > 100 µM |  | 73.6 µM | 
O=C1c2ccccc2C2(O)Nc3cc(O)ccc3C12O (stereo not drawn) |  | > 100 µM |  | > 100 µM |  | > 100 µM |  | > 100 µM |  | > 100 µM |  | > 100 µM |  | > 100 µM |  | > 100 µM |  | > 100 µM | 
CC(=O)OCC1OC(Nc2[nH]c(=O)n(C)c(=O)c2-c2csc(N)n2)C(OC(C)=O)C(OC(C)=O)C1OC(C)=O (stereo not drawn) |  | > 100 µM |  | > 100 µM |  | > 100 µM |  | > 100 µM |  | > 100 µM |  | > 100 µM |  | > 100 µM |  | > 100 µM |  | > 100 µM | 
Nc1ncnc2c1ncn2C1OC(COP(=O)(O)CP(=O)(O)O)C(O)C1O (stereo not drawn) |  | > 100 µM |  | > 100 µM |  |  |  | > 100 µM |  | > 100 µM |  |  |  | > 100 µM |  |  |  | > 100 µM | > 100 µM
